# Measured values published in US8604034B2, “Substituted imidazo[1,2-α]pyrrolo[1,2-d]pyrazines for treating respiratory syncytial virus (RSV) infections” (Biota Scientific Management Pty Ltd., priority 2010, dated 2013).
# Where a name gives a salt, the structure may show the parent alone. Read-outs that look alike come from different tables or passages of the source.
# Test system: RSV A2
# Assay: RSV antiviral cytopathic effect (CPE) assay
# Format: cell-based
# Conditions: human respiratory syncytial virus, HEp-2, 120 h, HEp2 cells infected with RSV A2 (moi ~0.01), 5 days, MTT readout
# Procedure, shortened: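 HEp2 cells infected with RSV A2 (moi ~0.01) and incubated with serially diluted compound for 5 days at 37 °C. CPE read by MTT metabolism (absorbance 540/650 nm); uninfected cells gave cytotoxicity. EC50 and CC50 obtained by non-linear regression.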
# [1] = read-out: Activity Range (RSV A2 EC50)
# [2] = mean EC50, read-out: RSV A2 EC50
Compound,EC50 [1] [nM],EC50 [2] [nM]
Cc1nocc1C(=O)N1CCN2C(=O)c3cc(-c4cccs4)nn3CC12c1ccc(Cl)cc1 (stereo not shown) [Compound 141],< 49,39
"COc1ccc(C23Cn4cc(-c5nnnn5C)cc4C(=O)N2CCN3C(=O)c2conc2C)cc1 (stereo not shown) [Compound 145, 10a-(4-methoxyphenyl)-1-[(3-methyl-1,2-oxazol-4-yl)carbonyl]-7-(1-methyl-1H-tetrazol-5-yl)-2,3,10,10a-tetrahydro-1H,5H-imidazo[1,2-a]pyrrolo[1,2-d]pyrazin-5-one]",500 to 10000,3700
Cc1nocc1C(=O)N1CCN2C(=O)c3cccc(=O)n3CC12c1ccc(F)cc1 (stereo not shown) [Compound 148],< 49,38
COc1ccc(C23Cn4c(cccc4=O)C(=O)N2CCN3C(=O)c2conc2C)cc1 (stereo not shown) [Compound 149],100 to 499,130
Cc1ccc(C23Cn4c(cccc4=O)C(=O)N2CCN3C(=O)c2conc2C)cc1 (stereo not shown) [Compound 150],< 49,11
Cc1ccc(C23Cn4c(C)ccc4C(=O)N2CCN3C(=O)c2conc2C)cn1 (stereo not shown) [Compound 151],< 49,8.7
Cc1nocc1C(=O)N1CCN2C(=O)c3ccc(C)n3CC12c1ccc(CO)cc1 (stereo not shown) [Compound 153],< 49,6.2
COc1ccc(C23Cn4nccc4C(=O)N2CCN3C(=O)c2conc2C)cc1 (stereo not shown) [Compound 157],100 to 499,360

# Next, values leading:
EC50 [1] [nM],EC50 [2] [nM],Compound
50 to 99,66,Cc1ccc(C23Cn4nc(-c5ccccn5)cc4C(=O)N2CCN3C(=O)c2conc2C)cc1 (stereo not shown) [Compound 139]
500 to 10000,550,Cc1nocc1C(=O)N1CCN2C(=O)c3cc(-c4cccn4C)nn3CC12c1ccc(Cl)cc1 (stereo not shown) [Compound 140]
500 to 10000,6700,"Cc1nocc1C(=O)N1CCN2C(=O)c3cccn3CC12c1ccc(O)nc1 (stereo not shown) [Compound 142, 10a-(6-hydroxypyridin-3-yl)-1-[(3-methyl-1,2-oxazol-4-yl)carbonyl]-2,3,10,10a-tetrahydro-1H,5H-imidazo[1,2-a]pyrrolo[1,2-d]pyrazin-5-one]"
500 to 10000,750,"Cc1nocc1C(=O)N1CCN2C(=O)c3cccn3CC12c1ccc(=O)n(C)c1 (stereo not shown) [Compound 143, 1-[(3-methyl-1,2-oxazol-4-yl)carbonyl]-10a-(1-methyl-6-oxo-1,6-dihydropyridin-3-yl)-2,3,10,10a-tetrahydro-1H,5H-imidazo[1,2-a]pyrrolo[1,2-d]pyrazin-5-one]"
50 to 99,79,Cc1nocc1C(=O)N1CCN2C(=O)c3cc(-c4cnn(C)c4)cn3CC12c1ccc(CO)cc1 (stereo not shown) [Compound 144]
< 49,46,"COc1ccc(C23Cn4cc(-c5nnn(C)n5)cc4C(=O)N2CCN3C(=O)c2conc2C)cc1 (stereo not shown) [Compound 146, 10a-(4-methoxyphenyl)-1-[(3-methyl-1,2-oxazol-4-yl)carbonyl]-7-(2-methyl-2H-tetrazol-5-yl)-2,3,10,10a-tetrahydro-1H,5H-imidazo[1,2-a]pyrrolo[1,2-d]pyrazin-5-one]"
100 to 499,390,"COc1ccc(C23Cn4cc(CN)cc4C(=O)N2CCN3C(=O)c2conc2C)cc1 (stereo not shown) [Compound 147, 7-(aminomethyl)-10a-(4-methoxyphenyl)-1-[(3-methyl-1,2-oxazol-4-yl)carbonyl]-2,3,10,10a-tetrahydro-1H,5H-imidazo[1,2-a]pyrrolo[1,2-d]pyrazin-5-one; trifluoroacetate salt]"
< 49,5.8,COc1ccc(C23Cn4c(C)ccc4C(=O)N2CCN3C(=O)c2conc2C)cn1 (stereo not shown) [Compound 152]
< 49,2.3,"Cc1nocc1C(=O)N1CCN2C(=O)c3ccc(C)n3CC12c1ccc(F)cc1 (stereo not shown) [Compound 154, 10a-(4-fluorophenyl)-8-methyl-1-[(3-methyl-1,2-oxazol-4-yl)carbonyl]-2,3,10,10a-tetrahydro-1H,5H-imidazo[1,2-d]pyrrolo[1,2-d]pyrazin-5-one]"
